In ChEMBL document CHEMBL2375216, “Molecular design, synthesis and biological evaluation of cyclic imides bearing benzenesulfonamide fragment as potential COX-2 inhibitors. Part 2” (Bioorg Med Chem Lett, 2013):

Experiments:
[1] = molecular target: T1, Prostaglandin G/H synthase 1 (Ovis aries, UniProt P05979); assay: Inhibition of ovine COX1-mediated prostaglandin alpha production by enzyme immuno assay
T1 sequence (P05979 whole entry): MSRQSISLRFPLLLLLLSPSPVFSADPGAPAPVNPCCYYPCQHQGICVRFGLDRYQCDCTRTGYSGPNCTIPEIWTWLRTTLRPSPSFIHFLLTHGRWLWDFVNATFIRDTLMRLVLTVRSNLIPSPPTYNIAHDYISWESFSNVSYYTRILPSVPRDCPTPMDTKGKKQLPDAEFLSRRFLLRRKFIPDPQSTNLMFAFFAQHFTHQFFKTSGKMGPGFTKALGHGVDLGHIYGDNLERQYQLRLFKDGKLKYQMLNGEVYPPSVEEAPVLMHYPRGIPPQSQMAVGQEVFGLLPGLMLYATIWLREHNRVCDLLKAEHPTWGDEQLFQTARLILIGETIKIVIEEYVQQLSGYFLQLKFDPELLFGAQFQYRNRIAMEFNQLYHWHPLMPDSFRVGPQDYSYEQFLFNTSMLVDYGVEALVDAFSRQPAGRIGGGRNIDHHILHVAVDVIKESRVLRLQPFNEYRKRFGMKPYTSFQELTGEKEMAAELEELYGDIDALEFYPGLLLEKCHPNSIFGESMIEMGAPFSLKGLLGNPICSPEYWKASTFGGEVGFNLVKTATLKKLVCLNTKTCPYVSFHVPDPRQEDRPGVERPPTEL

[2] = system: Rattus norvegicus; assay: Antiinflammatory activity in ip dosed Sprague-Dawley rat assessed as inhibition of carrageenan-induced paw edema measured after 2 hrs plethysmometric analysis; type: functional

| SMILES | IC50 [1] [µM] | ED50 [2] [mg/kg] |
| --- | --- | --- |
| O=C(O)c1ccc(N2C(=O)c3cccc4cccc(c34)C2=O)cc1 | > 100 |  |
| NS(=O)(=O)c1ccc(N2C(=O)c3c(Cl)c(Cl)c(Cl)c(Cl)c3C2=O)cc1 | > 100 |  |
| O=C(O)c1ccc(N2C(=O)c3c(Cl)c(Cl)c(Cl)c(Cl)c3C2=O)cc1 | > 100 |  |
| NS(=O)(=O)c1ccc(CN2C(=O)c3ccc([N+](=O)[O-])cc3C2=O)cc1 | > 100 | 72.4 |
| NS(=O)(=O)c1ccc(N2C(=O)c3ccc([N+](=O)[O-])cc3C2=O)cc1 | > 100 | 101 |
| O=C(O)c1ccc(N2C(=O)c3ccc([N+](=O)[O-])cc3C2=O)cc1 | > 100 |  |
| NS(=O)(=O)c1ccc(CN2C(=O)c3nccnc3C2=O)cc1 | > 100 | 126 |
| NS(=O)(=O)c1ccc(N2C(=O)c3nccnc3C2=O)cc1 | > 100 | 160 |
| O=C(O)c1ccc(N2C(=O)c3nccnc3C2=O)cc1 | > 100 |  |
| NS(=O)(=O)c1ccc(CN2C(=O)c3cccc4cccc(c34)C2=O)cc1 | > 100 | 200 |
| NS(=O)(=O)c1ccc(N2C(=O)c3cccc4cccc(c34)C2=O)cc1 | > 100 | 210 |
| NS(=O)(=O)c1ccc(CN2C(=O)CCC2=O)cc1 | > 100 |  |
| NS(=O)(=O)c1ccc(N2C(=O)CCC2=O)cc1 | > 100 |  |
| O=C(O)c1ccc(N2C(=O)CCC2=O)cc1 | > 100 |  |
| NS(=O)(=O)c1ccc(CN2C(=O)[C@H]3CC=CC[C@H]3C2=O)cc1 | > 100 |  |
| NS(=O)(=O)c1ccc(N2C(=O)[C@H]3CC=CC[C@H]3C2=O)cc1 | > 100 |  |

| SMILES | IC50 [1] [µM] | ED50 [2] [mg/kg] |
| --- | --- | --- |
| O=C(O)c1ccc(N2C(=O)[C@H]3CC=CC[C@H]3C2=O)cc1 | > 100 |  |
| NS(=O)(=O)c1ccc(CN2C(=O)c3ccccc3C2=O)cc1 | > 100 |  |
| Cc1ccc2c(c1)C(=O)N(Cc1ccc(S(N)(=O)=O)cc1)C2=O | > 100 |  |
| Cc1ccc2c(c1)C(=O)N(c1ccc(S(N)(=O)=O)cc1)C2=O | > 100 |  |
| Cc1ccc2c(c1)C(=O)N(c1ccc(C(=O)O)cc1)C2=O | > 100 |  |
| CC(C)(C)c1ccc2c(c1)C(=O)N(Cc1ccc(S(N)(=O)=O)cc1)C2=O | > 100 |  |
| CC(C)(C)c1ccc2c(c1)C(=O)N(c1ccc(S(N)(=O)=O)cc1)C2=O | > 100 |  |
| CC(C)(C)c1ccc2c(c1)C(=O)N(c1ccc(C(=O)O)cc1)C2=O | > 100 |  |
| NS(=O)(=O)c1ccc(CN2C(=O)c3cc(Cl)c(Cl)cc3C2=O)cc1 | > 100 | 100 |
| NS(=O)(=O)c1ccc(N2C(=O)c3cc(Cl)c(Cl)cc3C2=O)cc1 | > 100 | 111 |
| O=C(O)c1ccc(N2C(=O)c3cc(Cl)c(Cl)cc3C2=O)cc1 | > 100 |  |
| NS(=O)(=O)c1ccc(CN2C(=O)c3c(Cl)c(Cl)c(Cl)c(Cl)c3C2=O)cc1 | > 100 |  |
| O=C(O)c1ccc(N2C(=O)c3ccccc3C2=O)cc1 | > 100 |  |
| NS(=O)(=O)c1ccc(N2C(=O)c3ccccc3C2=O)cc1 | > 100 |  |
| Cc1ccc(-c2cc(C(F)(F)F)nn2-c2ccc(S(N)(=O)=O)cc2)cc1 [CELECOXIB] |  | 83.4 |
